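Step 1: Grow cells in 96-well plates. Step 2: Expose to compound for 48 hours at 5 concentrations. Step 3: Interpolate endpoints linearly; if unreached, use highest concentration. GI50 marks 50% less growth.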 Active and inactive are the calls of the source. Rule as the data show it: active = GI50 up to about 1.1 µM and inactive = higher.
Assays:
Test in all cases: NCI tumour cell line growth inhibition, 48 h
MOLT-4 = tested on: MOLT-4
A549 = tested on: A549
SNB-75 = tested on: SNB-75
HCT-15 = tested on: HCT-15
IGROV-1 = tested on: IGROV-1
786-0 = tested on: 786-0
TK-10 = tested on: TK-10
HL-60 = tested on: HL-60
PC-3 = tested on: PC-3
SF-539 = tested on: SF-539
BT-549 = tested on: BT-549
NCI-H460 = tested on: NCI-H460
NCI/ADR-RES = tested on: NCI/ADR-RES
Hs-578T = tested on: Hs-578T
SK-MEL-2 = tested on: SK-MEL-2
SF-268 = tested on: SF-268
HCC 2998 = tested on: HCC 2998
OVCAR-3 = tested on: OVCAR-3
UACC-62 = tested on: UACC-62
SR = tested on: SR

Row | SMILES | GI50 (MOLT-4) | GI50 (A549) | GI50 (SNB-75) | GI50 (HCT-15) [µM] | GI50 (IGROV-1) | GI50 (786-0) | GI50 (TK-10) | GI50 (HL-60) | GI50 (PC-3) | GI50 (SF-539) | GI50 (BT-549) | GI50 (NCI-H460) | GI50 (NCI/ADR-RES) | GI50 (Hs-578T) | GI50 (SK-MEL-2) | GI50 (SF-268) | GI50 (HCC 2998) | GI50 (OVCAR-3) | GI50 (UACC-62) | GI50 (SR)
1 | COP(=O)(CC(=O)C1OC(OCc2ccccc2)C(OCc2ccccc2)C(OCc2ccccc2)C1OCc1ccccc1)OC (stereo not given) | 2.69 µM (inactive) | 5.57 µM (inactive) | 7.76 µM (inactive) | 4.83 | 13.3 µM (inactive) | 12.5 µM (inactive) | 15.3 µM (inactive) | 4.39 µM (inactive) | 5.01 µM (inactive) | 12.8 µM (inactive) | 17.4 µM (inactive) | 4.24 µM (inactive) | 4.16 µM (inactive) | 23.9 µM (inactive) | 3.22 µM (inactive) | 12.8 µM (inactive) | 3.32 µM (inactive) | 8.87 µM (inactive) | 4.12 µM (inactive) | 3.26 µM (inactive)
2 | C=C1C(=O)OC2C1CCC(=C)C1CC(O)C(=C)C12 (stereo not given) | 8.38 µM (inactive) | 23.8 µM (inactive) | 19.7 µM (inactive) | 10.8 | 14 µM (inactive) | 5.5 µM (inactive) | 8.02 µM (inactive) | 1.82 µM (inactive) | 13.4 µM (inactive) | 16.9 µM (inactive) | 15.3 µM (inactive) | 18 µM (inactive) | 24 µM (inactive) | 36.9 µM (inactive) | 14.3 µM (inactive) | 15.4 µM (inactive) | 14.3 µM (inactive) | 13.3 µM (inactive) | 13.5 µM (inactive) | 3.22 µM (inactive)
3 | O=C(O)c1cc(/N=N/c2ccc([N+](=O)[O-])cc2)ccc1O | 24.8 µM (inactive) | 32.6 µM (inactive) | 38.7 µM (inactive) | 31.8 | 40.2 µM (inactive) | 34.3 µM (inactive) | 25.6 µM (inactive) | 29 µM (inactive) | 33.7 µM (inactive) | 33.3 µM (inactive) | 42.4 µM (inactive) | 28.2 µM (inactive) | 30.8 µM (inactive) | 37.6 µM (inactive) | 26.5 µM (inactive) | 35.6 µM (inactive) | 18.7 µM (inactive) | 15.6 µM (inactive) | 31.3 µM (inactive) | 29.4 µM (inactive)
4 | C[n+]1c(-c2ccc(/C=N/NC(=O)c3ccc(C(=O)N/N=C/c4ccc(-c5cn6ccccc6[n+]5C)cc4)cc3)cc2)cn2ccccc21 | > 100 µM (inactive) | > 100 µM (inactive) | > 100 µM (inactive) | > 100 | > 100 µM (inactive) | 13.9 µM (inactive) | > 83.4 µM (inactive) | > 100 µM (inactive) | > 100 µM (inactive) | > 84.9 µM (inactive) | > 100 µM (inactive) | > 100 µM (inactive) | > 100 µM (inactive) | > 100 µM (inactive) | > 100 µM (inactive) | > 100 µM (inactive) | > 100 µM (inactive) | > 100 µM (inactive) | > 81.8 µM (inactive) | > 100 µM (inactive)
5 | C[C@]12CC[C@H](O)C[C@H]1CC[C@@H]1[C@@H]2CC[C@]2(C)[C@@H](C3=CC(=O)OC3)CC[C@]12O [DIGITOXIGENIN] | < 0.01 µM (active) | 0.0183 µM (active) | 0.299 µM (active) | 0.101 | 0.0668 µM (active) | 0.0447 µM (active) | 0.0944 µM (active) | 0.0524 µM (active) | 0.149 µM (active) | 0.0356 µM (active) | 0.0372 µM (active) | 0.0168 µM (active) | 0.115 µM (active) | 0.0673 µM (active) | 0.321 µM (active) | 0.0367 µM (active) | 0.235 µM (active) | 0.0367 µM (active) | 0.36 µM (active) | 0.0531 µM (active)
